This is an account of results in patent US8518930B2, “Therapeutic combination comprising a CDKS inhibitor and an antineoplastic agent” (Nerviano Medical Sciences S.r.l., priority 2008, dated 2013).

pIC50: −log10 of the molar value. Like-named read-outs stand apart in the source and are kept apart here.

Series [1] deals with HCT-116 human colon carcinoma. In words: In vivo antitumor efficacy in combination with 5-FU, subcutaneous xenograft. The conditions noted are these: for T − C: time to reach 1 g. The method, then:
Balb, Nu/Nu male mice, from Harlan (Italy), were maintained in cages with paper filter cover, food and bedding sterilized and water acidified. Fragments of HCT-116 human colon carcinoma were implanted subcutaneously in athymic mice.
(§1) The treatment started when tumors were palpable. Both compounds were prepared immediately before treatment.
5-FU was administered by intravenous route in a volume of 10 ml/kg at the dose of 50 mg/kg on days 1, 8. […] Toxicity was evaluated on the basis of body weigh reduction.

Series [2] has as its system A2780 human ovarian carcinoma cells. The experiment in a line: In vitro cytotoxic activity of the combination with gemcitabine (cell proliferation, cellular ATP monitoring). The series is classed as cell-based. The conditions noted are these: for pIC50: Homo sapiens, single agent, A2780, compound of formula (I) 24 hours, gemcitabine 1 hour, counted 72 hours after first treatment. The protocol: Exponentially growing A2780 human ovarian carcinoma cells were seeded and incubated at 37° C. in a humidified 5% CO2 atmosphere. After 24 hours, scalar doses of the compound of formula (I) were added to the medium for 24 hours, cells were washed and gemcitabine added for 1 hour. Cells were then washed and counted 72 hours after the first treatment. Cell proliferation was determined by a cellular adenosine triphosphate monitoring system. Cell proliferation was compared to control cells. The concentration inhibiting cell proliferation by 50% (IC50) was calculated.
(§2) The combination indices (C.I.) were calculated using a computer program for multiple drug effect analysis based on the equation of Chou-Talalay (Adv Enzyme Regul 1984; 22:27-55) for mutually nonexclusive drugs, where a C.I. of <1 indicates a more than additive effect.

Series [3] shares this test system. In words: In vitro cytotoxic activity of the combination with oxaliplatin (cell proliferation, cellular ATP monitoring). The conditions noted are these: for pIC50: single agent, A2780, oxaliplatin 1 hour, compound of formula (I) 24 hours, counted 72 hours after first treatment. In kind it is cell-based. The protocol: (§3) Exponentially growing A2780 human ovarian carcinoma cells were seeded and incubated at 37° C. in a humidified 5% CO2 atmosphere. After 24 hours, scalar doses of oxaliplatin were added to the medium for 1 hour, cells were washed and compound of formula (I) added for 24 hours. Cells were then washed and counted 72 hours after the first treatment. Cell proliferation was determined by a cellular adenosine triphosphate monitoring system. Cell proliferation was compared to control cells. The concentration inhibiting cell proliferation by 50% (IC50) was calculated.
as §2

Series [4] has the same test system. The experiment in a line: In vitro cytotoxic activity of the combination with SN-38 (cell proliferation, cellular ATP monitoring). The series is classed as cell-based. The following applies: for pIC50: single agent, A2780, SN-38 1 hour, compound of formula (I) 24 hours, counted 72 hours after first treatment. The protocol: as §3, with “SN38 is the active metabolite of irinotecan, from which is obtained by hydrolysis. Exponentially” for “Exponentially”, “SN-38” for “oxaliplatin”
as §2

In series [5] the test system is U87-MG human glioblastoma. The following applies: for T − C: time to reach 1 g; for Toxicity: male, Balb Nu/Nu (athymic), mouse, in vivo, po, 7 days. The protocol: Balb, Nu/Nu male mice, from Harlan (Italy), were maintained in cages with paper filter cover, food and bedding sterilized and water acidified. Fragments of U87-MG human glioblastoma were implanted subcutaneously in athymic mice. […] The treatment with temozolomide started when tumors were palpable. Compounds were prepared immediately before treatment.
(§4) Temozolomide was administered orally in a volume of 10 ml/kg at the dose of 25 mg/kg for 5 consecutive days. […] Tumor growth and body weight were measured every 3 days. Tumor growth was assessed by caliper. The two diameters were recorded and the tumor weight was calculated according the following formula: length (mm)×width^2/2. The effect of the antitumor treatment was evaluated as the delay in the onset of an exponential growth of the tumor (see for references, Anticancer drugs 7:437-60,1996). This delay (T-C value) was defined as the difference of time (in days) required for the treatment group (T) and the control group (C) tumors to reach a predetermined size (1 g). Toxicity was evaluated on the basis of body weigh reduction.

The subject of series [6] is N-592 human small cell lung cancer tumors. The following applies: for T − C: time to reach 1 g; for Toxicity: male, Balb Nu/Nu (athymic), mouse, in vivo, po, 17 days. The method, then: Balb, Nu/Nu male mice, from Harlan (Italy), were maintained in cages with paper filter cover, food and bedding sterilized and water acidified. Fragments of N-592 human small cell lung cancer tumors were implanted subcutaneously in athymic mice.
as §1
as §4, with “Topotecan” for “Temozolomide”, “by intravenous route” for “orally”, “6” for “25”, “on days 1, 5, 9, 13, 17.” for “for 5 consecutive days.”, “references” for “references,”, “7:437-60, 1996).” for “7:437-60,1996).”

[7] abbreviates: compound of formula (I) 20 mg/kg orally twice a day, days 1-7.
The mark [8] stands for this setting: compound of formula (I) 40 mg/kg orally twice a day, days 1-7.
Setting [9] is: temozolomide 25 mg/kg orally, days 1-5.

On to `O=c1[nH]cc(F)c(=O)[nH]1` [5-FU, 5-fluorouracil, reference compound], for which the “T − C” value in series [1] (5-FU 50 mg/kg intravenous, days 1, 8) is reported as 2.17 days.
As to `Nc1ccn([C@@H]2O[C@H](CO)[C@@H](O)C2(F)F)c(=O)n1` [Gemcitabine, gemcitabine, reference compound], the negative logarithm of the IC50 (pIC50) – broadly, −log10 of the IC50, conventionally taken in molar units – in series [2] was 6.44.
Regarding `O=C1[O][Pt]2([NH][C@@H]3CCCC[C@H]3[NH]2)[O]C1=O` [Oxaliplatin, oxaliplatin, reference compound], the pIC50 in series [3] is 5.61.
`CCc1c2c(nc3ccc(O)cc13)-c1cc3c(c(=O)n1C2)COC(=O)[C@]3(O)CC` [SN-38, reference compound]: the pIC50 in series [4] was 7.41.
On to `CNC(=O)c1nn(C)c2c1C(C)(C)Cc1cnc(Nc3ccc(N4CCN(C)CC4)cc3)nc1-2` [compound of formula (I), 8-[4-(4-methyl-piperazin-1-yl)-phenylamino]-1,4,4-trimethyl-4,5-dihydro-1H-pyrazolo[4,3-h]quinazoline-3-carboxylic acid methylamide], for which the “T − C” value in series [1] (Compound of formula (I) 20 mg/kg orally twice a day, days 2-7 and 9-14) was 4.93 days; in series [5] (setting [7]), 1.74 days; in series [5] (setting [8]) it was 7.14 days; in series [6] (Compound of formula (I) 20 mg/kg orally twice a day, days 1-17) it was 1.61 days; in series [6] (Compound of formula (I) 30 mg/kg orally twice a day, days 1-17), 2.98 days. The combination effect result in series [1] (compound of formula (I) combined with 5-FU, HCT-116 xenograft) is reported as “clear synergistic effect”; in series [3] (compound of formula (I) combined with oxaliplatin, human tumor cells) it was “more than additive (i.e. synergic) effect”; in series [5] (compound of formula (I) combined with temozolomide, U87-MG xenograft) it was “clear synergic effect”; in series [6] (compound of formula (I) combined with topotecan, N-592 xenograft), “clear synergistic effect”; in series [4] (compound of formula (I) combined with SN-38, human tumor cells), “more than additive (i.e. synergic) effect”; in series [2] (compound of formula (I) combined with gemcitabine, human tumor cells), “more than additive (i.e. synergic) effect”. Moreover, the Toxicity in series [1] (male, Balb Nu/Nu (athymic), mouse, in vivo, po, 20 mg/kg) is 0/7; in series [5] (20 mg/kg) it was 0/8; in series [5] (40 mg/kg) it was 0/8; in series [6] (20 mg/kg), 0/7; in series [6] (30 mg/kg), 0/7. For the same compound, the pIC50 is 6.06 in series [3] (Homo sapiens), 6.16 in series [4] (Homo sapiens) and 6.38 in series [2]. Moreover, the Tumor-free mice in series [5] (setting [7]) and in series [5] (setting [8]) was 0/8 throughout.
Consider `Cn1nnc2c(C(N)=O)ncn2c1=O` [temozolomide, reference compound], for which, in series [5] (setting [9]), the Tumor-free mice is 1/8 and the “T − C” value is given as 30.88 days.
Take `CC[C@@]1(O)C(=O)OCc2c1cc1n(c2=O)Cc2cc3c(CN(C)C)c(O)ccc3nc2-1` [topotecan, reference compound]: in series [6] (topotecan 6 mg/kg intravenous, days 1, 5, 9, 13, 17), the “T − C” value amounted to 5.64 days.
